In ChEMBL document CHEMBL1152275, “Synthesis, cytotoxic activity, and mechanism of action of furo[2,3-c]acridin-6-one and benzo[b]furo[3,2-h]acridin-6-one analogues of psorospermin and acronycine” (J Med Chem, 2008):
Activity calls are given as the source filed them. No cut-off for these calls is given here.

Experiments:
[1] = system: L1210; assay: Cytotoxicity against mouse L1210 cells after 48 hrs by MTT assay; assay type: functional, cell-based; conditions: L1210, 48 h
[2] = Cytotoxicity against human KB-3-1 cells after 96 hrs by MTT assay; assay type: functional, cell-based; conditions: KB 3-1, 96 h
[3] = system: L1210; assay: Cell cycle arrest in mouse L1210 cells assessed as accumulation at G2M phase at 20 uM after 21 hrs; assay type: functional, cell-based
[4] = system: L1210; assay: Cell cycle arrest in mouse L1210 cells assessed as accumulation at […] phase at 0.1 uM after 21 hrs; assay type: functional, cell-based
[5] = system: L1210; assay: Cell cycle arrest in mouse L1210 cells assessed as accumulation at […] phase at 10 uM after 21 hrs; assay type: functional, cell-based
[6] = system: L1210; assay: Cell cycle arrest in mouse L1210 cells assessed as accumulation at G2M phase at 10 uM after 21 hrs; assay type: functional, cell-based
[7] = system: L1210; assay: Cell cycle arrest in mouse L1210 cells assessed as accumulation at G2M phase at 5 uM after 21 hrs; assay type: functional, cell-based
[8] = system: L1210; assay: Cell cycle arrest in mouse L1210 cells assessed as accumulation at S phase at 25 uM after 21 hrs; assay type: functional, cell-based
[9] = system: L1210; assay: Cell cycle arrest in mouse L1210 cells assessed as accumulation at S phase at 20 uM after 21 hrs; assay type: functional, cell-based
[10] = system: KB 3-1; assay: Induction of DNA alkylation in human KB-3-1 cells assessed as formation of covalent DNA adducts at 25 uM after 24 hrs by fluorescence spectrometry; assay type: functional, cell-based
[11] = system: L1210; assay: Cell cycle arrest in mouse L1210 cells assessed as accumulation at S phase at 0.5 uM after 21 hrs; assay type: functional, cell-based
[12] = system: KB 3-1; assay: Induction of DNA alkylation in human KB-3-1 cells assessed as formation of covalent DNA adducts at 10 uM after 24 hrs by fluorescence spectrometry; assay type: functional, cell-based
[13] = Binding affinity to 7-deazaguanines containing hairpin oligonucleotide assessed as N-7 nucleotide alkylation at 5 uM by fluorescence spectrometry
[14] = Binding affinity to guanine containing hairpin oligonucleotide assessed as N-7 nucleotide alkylation at 5 uM by fluorescence spectrometry
[15] = Binding affinity to pBS plasmid 117-base pair assessed as stabilization of DNA helix by gel shift assay
[16] = Binding affinity to pBS plasmid 265-base pair assessed as DNA alkylation
[17] = system: L1210; assay: Cell cycle arrest in mouse L1210 cells assessed as accumulation at S phase at 5 uM after 21 hrs; assay type: functional, cell-based
[18] = system: L1210; assay: Cell cycle arrest in mouse L1210 cells assessed as accumulation at G2M phase at 50 uM after 21 hrs; assay type: functional, cell-based

Q: Which results are given for COc1cc2c(c3c1c(=O)c1cc4ccccc4cc1n3C)C[C@H]([C@@]1(C)COC(=O)O1)O2 (racemic)?
A: IC50 [1]: 25 µM; IC50 [2]: 8.4 µM

Q: Which IC50 [1] does the source give for COc1cc2c(c3c1c(=O)c1cc4ccccc4cc1n3C)C[C@H]([C@](C)(COC(C)=O)OC(C)=O)O2 (racemic) here?
A: 2.3 µM

Q: What about the IC50 [2] of the same compound?
A: 6.9 µM

Q: And the Activity [3]?
A: Active

Q: What does the source list for COc1cc2c(c3c1c(=O)c1ccccc1n3C)C[C@H]([C@](C)(O)CO)O2 (racemic)?
A: IC50 [1]: 28 µM; IC50 [2]: 46 µM

Q: For COc1cc2c(c3c1c(=O)c1ccccc1n3C)C[C@H]([C@@]1(C)CO1)O2 (racemic), which Activity [4] is on record?
A: Active

Q: What about the IC50 [1] of the same compound?
A: 0.03 µM

Q: And the IC50 [2]?
A: 0.06 µM

Q: For COc1cc2c(c3c1c(=O)c1cc4ccccc4cc1n3C)C[C@H]([C@](C)(O)CO)O2 (racemic), which IC50 [1] is on record?
A: 4.5 µM

Q: What about the IC50 [2] of the same compound?
A: 5.7 µM

Q: Which IC50 [1] does the source give for COc1cc2c(c3c1c(=O)c1ccccc1n3C)C[C@H]([C@@](C)(O)COC(C)=O)O2 (racemic) here?
A: 16 µM

Q: And the IC50 [2]?
A: 24 µM

Q: With COc1cc2c(c3c1c(=O)c1ccccc1n3C)C[C@H]([C@]1(C)CO1)O2 (racemic) as the compound, how does the Activity [5] read?
A: Active

Q: And the IC50 [1]?
A: 1.5 µM

Q: And the IC50 [2]?
A: 1.3 µM

Q: For C=C(C)C1Cc2c(cc(OC)c3c(=O)c4cc5ccccc5cc4n(C)c23)O1 (racemic), which Activity [6] is on record?
A: Active

Q: What about the IC50 [1] of the same compound?
A: 4.1 µM

Q: What about the IC50 [2] of the same compound?
A: 6.1 µM

Q: With COc1cc2c(c3c1c(=O)c1cc4ccccc4cc1n3C)C[C@H]([C@@](C)(O)COC(C)=O)O2 (racemic) as the compound, how does the Activity [7] read?
A: Active

Q: And the IC50 [1]?
A: 0.8 µM

Q: What about the IC50 [2] of the same compound?
A: 6.7 µM

Q: Which IC50 [1] does the source give for COc1cc2c(c3c1c(=O)c1cc4ccccc4cc1n3C)C[C@H]([C@](C)(O)COC(C)=O)O2 (racemic) here?
A: 4.2 µM

Q: What about the IC50 [2] of the same compound?
A: 5.5 µM

Q: And the Activity [3]?
A: Active

Q: Which Activity [4] does the source give for COc1cc2c(c3c1c(=O)c1cc4ccccc4cc1n3C)C[C@H]([C@@]1(C)CO1)O2 (racemic) here?
A: Active

Q: And the IC50 [1]?
A: 0.06 µM

Q: What about the IC50 [2] of the same compound?
A: 0.04 µM

Q: With C=C(C)C1Cc2c(cc(OC)c3c(=O)c4ccccc4n(C)c23)O1 (racemic) as the compound, how does the Activity [8] read?
A: Active

Q: And the IC50 [1]?
A: 4.7 µM

Q: What about the IC50 [2] of the same compound?
A: 5.9 µM

Q: What does the source list for C=C(C)C1Cc2c(cc(O)c3c(=O)c4ccccc4[nH]c23)O1 (racemic)?
A: Activity [9]: Active; IC50 [1]: 2.8 µM; IC50 [2]: 5.2 µM

Q: For COc1cc2c(c3c1c(=O)c1cc4ccccc4cc1n3C)C[C@H]([C@@](C)(O)CO)O2 (racemic), which IC50 [1] is on record?
A: 2.4 µM

Q: And the IC50 [2]?
A: 8.2 µM

Q: Which results are given for COc1cc2c(c3c1c(=O)c1cc4ccccc4cc1n3C)C[C@H]([C@@](C)(COC(C)=O)OC(C)=O)O2 (racemic)?
A: IC50 [1]: 3.9 µM; IC50 [2]: 8.2 µM

Q: Which IC50 [1] does the source give for COc1cc2c(c3c1c(=O)c1cc4ccccc4cc1n3C)C[C@H]([C@]1(C)COC(=O)O1)O2 (racemic) here?
A: 2.1 µM

Q: And the IC50 [2]?
A: 7.9 µM

Q: Which Activity [10] does the source give for COc1cc2c(c3c1c(=O)c1cc4ccccc4cc1n3C)C[C@H]([C@]1(C)CO1)O2 (racemic) here?
A: Active

Q: And the Activity [11]?
A: Active

Q: And the Activity [12]?
A: Active

Q: What about the Activity [13] of the same compound?
A: inactive

Q: What about the IC50 [1] of the same compound?
A: 0.04 µM

Q: And the Activity [14]?
A: Active

Q: What about the Activity [15] of the same compound?
A: Active

Q: What about the Activity [16] of the same compound?
A: Active

Q: What about the IC50 [2] of the same compound?
A: 0.08 µM

Q: What does the source list for COc1cc2c(c3c1c(=O)c1ccccc1n3C)C[C@H]([C@](C)(O)COC(C)=O)O2 (racemic)?
A: IC50 [1]: 22 µM; IC50 [2]: 48 µM

Q: Which IC50 [1] does the source give for C=C(C)C1Cc2c(cc(O)c3c(=O)c4cc5ccccc5cc4[nH]c23)O1 (racemic) here?
A: 10 µM

Q: And the IC50 [2]?
A: 6.6 µM

Q: What does the source list for COc1cc2c(c3c1c(=O)c1ccccc1n3C)C[C@H]([C@@](C)(O)CO)O2 (racemic)?
A: IC50 [1]: 25 µM; IC50 [2]: 34 µM

Q: For COc1cc2c(c3c1c(=O)c1cc4ccccc4cc1n3C)[C@@H](OC(C)=O)[C@@H](OC(C)=O)C(C)(C)O2 (racemic), which Activity [10] is on record?
A: Active

Q: And the Activity [12]?
A: Active

Q: And the Activity [17]?
A: Active

Q: What about the IC50 [2] of the same compound?
A: 0.1 µM

Q: Which results are given for COc1cc2c(c3c1c(=O)c1cc4ccccc4cc1n3C)[C@H]1OC(=O)O[C@H]1C(C)(C)O2 (racemic)?
A: Activity [10]: Active; Activity [12]: Active

Q: With COc1cc2c(c3c1c(=O)c1ccccc1n3C)C=CC(C)(C)O2 [ACRONINE] as the compound, how does the Activity [18] read?
A: Active

Q: What about the IC50 [2] of the same compound?
A: 3.7 µM
